Assay results taken from article PMC7043280 (European journal of medicinal chemistry, 2018).
Values belong to the compound of their own block, whether it stands above or below them.

Key:
GluN1/GluN2A NMDAR [1] = molecular target: T1, GluN1/GluN2A NMDAR (Rattus norvegicus, UniProt P35439+Q00959); conditions: ref 7a; cited from earlier work
[2] = system: GluN1/GluN2A-D diheteromeric NMDARs; test: TEVC electrophysiology, values stated in the text across several GluN2 subtypes; type: cell-based, rat
GluN1/GluN2D NMDAR = GluN1/GluN2D NMDAR (Rattus norvegicus, UniProt P35439+Q62645); test: TEVC electrophysiology on recombinant NMDA receptors; type: cell-based; conditions: for percentage maximum inhibition of the agonist response, GluN2D: value in parenthesis, ± s.e.m., L-glutamate 10 μM and glycine 10 μM
Chain of GluN1/GluN2D NMDAR (Q62645 28-1323, other chains not shown): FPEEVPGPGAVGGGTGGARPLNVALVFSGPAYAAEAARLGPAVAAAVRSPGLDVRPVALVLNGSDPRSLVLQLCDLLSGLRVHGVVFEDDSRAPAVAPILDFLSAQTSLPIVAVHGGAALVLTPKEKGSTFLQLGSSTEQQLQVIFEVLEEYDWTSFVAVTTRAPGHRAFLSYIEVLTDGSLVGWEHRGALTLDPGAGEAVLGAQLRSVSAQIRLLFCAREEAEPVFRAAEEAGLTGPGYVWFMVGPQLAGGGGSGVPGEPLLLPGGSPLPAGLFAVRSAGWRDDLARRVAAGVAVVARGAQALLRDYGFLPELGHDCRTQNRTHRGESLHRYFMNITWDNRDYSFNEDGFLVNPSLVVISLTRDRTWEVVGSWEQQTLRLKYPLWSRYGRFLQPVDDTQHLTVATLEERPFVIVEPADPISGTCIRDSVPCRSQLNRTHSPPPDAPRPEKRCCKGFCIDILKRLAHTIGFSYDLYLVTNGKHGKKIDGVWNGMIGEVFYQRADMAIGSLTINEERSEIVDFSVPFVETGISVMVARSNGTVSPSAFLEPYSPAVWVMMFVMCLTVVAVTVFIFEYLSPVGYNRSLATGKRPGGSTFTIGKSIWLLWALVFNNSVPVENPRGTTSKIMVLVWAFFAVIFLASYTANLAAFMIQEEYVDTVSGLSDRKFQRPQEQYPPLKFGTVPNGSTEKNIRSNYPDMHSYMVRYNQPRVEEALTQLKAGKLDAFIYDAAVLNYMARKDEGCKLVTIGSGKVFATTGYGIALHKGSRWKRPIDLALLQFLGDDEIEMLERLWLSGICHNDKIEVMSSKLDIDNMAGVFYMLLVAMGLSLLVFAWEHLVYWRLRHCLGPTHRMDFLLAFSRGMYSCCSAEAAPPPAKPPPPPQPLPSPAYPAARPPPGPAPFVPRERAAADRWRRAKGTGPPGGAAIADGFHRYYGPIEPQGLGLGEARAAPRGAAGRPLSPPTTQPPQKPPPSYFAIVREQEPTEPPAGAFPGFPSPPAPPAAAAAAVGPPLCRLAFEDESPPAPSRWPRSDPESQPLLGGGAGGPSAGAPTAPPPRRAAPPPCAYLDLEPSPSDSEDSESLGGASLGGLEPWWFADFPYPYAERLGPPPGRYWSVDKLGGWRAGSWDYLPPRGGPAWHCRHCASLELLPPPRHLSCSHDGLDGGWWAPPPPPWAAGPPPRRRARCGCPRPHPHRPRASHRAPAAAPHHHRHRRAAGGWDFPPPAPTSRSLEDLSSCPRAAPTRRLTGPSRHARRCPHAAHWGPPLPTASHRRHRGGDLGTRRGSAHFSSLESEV

GluN1/GluN2B NMDAR = GluN1/GluN2B NMDAR (Rattus norvegicus, UniProt P35439+Q00960); test: as above; type: cell-based; conditions: for fold greater inhibitory activity on GluN2B compared to 7: from IC50 values, Table 6
Chain of GluN1/GluN2B NMDAR (Q00960 27-1482, other chains not shown): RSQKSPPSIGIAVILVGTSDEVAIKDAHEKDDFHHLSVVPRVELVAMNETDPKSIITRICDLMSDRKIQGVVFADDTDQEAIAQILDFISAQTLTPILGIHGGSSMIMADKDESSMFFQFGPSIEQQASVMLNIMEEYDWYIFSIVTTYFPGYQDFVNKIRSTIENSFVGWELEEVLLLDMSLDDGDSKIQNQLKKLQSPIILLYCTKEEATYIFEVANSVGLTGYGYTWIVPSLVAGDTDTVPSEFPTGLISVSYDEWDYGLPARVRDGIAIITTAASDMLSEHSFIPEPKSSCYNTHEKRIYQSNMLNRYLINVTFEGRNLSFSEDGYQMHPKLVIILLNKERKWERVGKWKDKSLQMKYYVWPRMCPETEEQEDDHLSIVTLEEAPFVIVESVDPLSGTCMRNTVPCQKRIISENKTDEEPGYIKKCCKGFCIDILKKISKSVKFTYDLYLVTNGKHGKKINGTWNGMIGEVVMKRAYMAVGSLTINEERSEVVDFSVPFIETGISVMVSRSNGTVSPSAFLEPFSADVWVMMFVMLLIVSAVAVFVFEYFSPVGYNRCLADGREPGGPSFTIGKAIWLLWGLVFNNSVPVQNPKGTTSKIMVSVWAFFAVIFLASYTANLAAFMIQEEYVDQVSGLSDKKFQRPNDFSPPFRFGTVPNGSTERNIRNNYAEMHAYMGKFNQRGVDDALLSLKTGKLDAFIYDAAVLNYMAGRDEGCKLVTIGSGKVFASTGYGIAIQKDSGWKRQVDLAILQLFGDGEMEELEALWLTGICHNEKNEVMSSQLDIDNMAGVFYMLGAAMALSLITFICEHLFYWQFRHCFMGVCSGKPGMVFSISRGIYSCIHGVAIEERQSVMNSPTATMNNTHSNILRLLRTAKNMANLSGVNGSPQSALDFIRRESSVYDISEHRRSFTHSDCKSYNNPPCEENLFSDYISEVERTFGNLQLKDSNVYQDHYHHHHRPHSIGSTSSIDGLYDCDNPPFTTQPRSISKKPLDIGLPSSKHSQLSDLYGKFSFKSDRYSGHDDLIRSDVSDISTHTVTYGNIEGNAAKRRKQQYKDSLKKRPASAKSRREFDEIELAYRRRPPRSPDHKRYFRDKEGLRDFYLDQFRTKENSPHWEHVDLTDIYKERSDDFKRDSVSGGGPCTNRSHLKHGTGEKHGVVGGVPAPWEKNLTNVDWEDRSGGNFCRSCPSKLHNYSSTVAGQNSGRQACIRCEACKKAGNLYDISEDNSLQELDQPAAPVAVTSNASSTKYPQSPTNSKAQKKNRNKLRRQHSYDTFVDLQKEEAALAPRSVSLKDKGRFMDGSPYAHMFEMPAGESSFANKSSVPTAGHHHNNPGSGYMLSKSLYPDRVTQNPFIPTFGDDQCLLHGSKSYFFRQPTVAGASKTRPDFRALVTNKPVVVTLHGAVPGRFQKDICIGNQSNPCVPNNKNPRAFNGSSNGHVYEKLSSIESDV

GluN1/GluN2A NMDAR [3] = molecular target: T1, GluN1/GluN2A NMDAR; test: as above; type: cell-based
GluN1/GluN2C NMDAR = GluN1/GluN2C NMDAR (Rattus norvegicus, UniProt P35439+Q00961); test: as above; type: cell-based; conditions: from IC50 values, Table 6
NMDAR = conditions: cited from earlier work; for NMDAR agonist activity or effect on the holding current: ref Saptoka et al., 2017
[4] = system: GluN1/GluN2A-D diheteromeric NMDARs; conditions: cited from earlier work

T1 sequence (Q00959 23-1464, other chains not shown): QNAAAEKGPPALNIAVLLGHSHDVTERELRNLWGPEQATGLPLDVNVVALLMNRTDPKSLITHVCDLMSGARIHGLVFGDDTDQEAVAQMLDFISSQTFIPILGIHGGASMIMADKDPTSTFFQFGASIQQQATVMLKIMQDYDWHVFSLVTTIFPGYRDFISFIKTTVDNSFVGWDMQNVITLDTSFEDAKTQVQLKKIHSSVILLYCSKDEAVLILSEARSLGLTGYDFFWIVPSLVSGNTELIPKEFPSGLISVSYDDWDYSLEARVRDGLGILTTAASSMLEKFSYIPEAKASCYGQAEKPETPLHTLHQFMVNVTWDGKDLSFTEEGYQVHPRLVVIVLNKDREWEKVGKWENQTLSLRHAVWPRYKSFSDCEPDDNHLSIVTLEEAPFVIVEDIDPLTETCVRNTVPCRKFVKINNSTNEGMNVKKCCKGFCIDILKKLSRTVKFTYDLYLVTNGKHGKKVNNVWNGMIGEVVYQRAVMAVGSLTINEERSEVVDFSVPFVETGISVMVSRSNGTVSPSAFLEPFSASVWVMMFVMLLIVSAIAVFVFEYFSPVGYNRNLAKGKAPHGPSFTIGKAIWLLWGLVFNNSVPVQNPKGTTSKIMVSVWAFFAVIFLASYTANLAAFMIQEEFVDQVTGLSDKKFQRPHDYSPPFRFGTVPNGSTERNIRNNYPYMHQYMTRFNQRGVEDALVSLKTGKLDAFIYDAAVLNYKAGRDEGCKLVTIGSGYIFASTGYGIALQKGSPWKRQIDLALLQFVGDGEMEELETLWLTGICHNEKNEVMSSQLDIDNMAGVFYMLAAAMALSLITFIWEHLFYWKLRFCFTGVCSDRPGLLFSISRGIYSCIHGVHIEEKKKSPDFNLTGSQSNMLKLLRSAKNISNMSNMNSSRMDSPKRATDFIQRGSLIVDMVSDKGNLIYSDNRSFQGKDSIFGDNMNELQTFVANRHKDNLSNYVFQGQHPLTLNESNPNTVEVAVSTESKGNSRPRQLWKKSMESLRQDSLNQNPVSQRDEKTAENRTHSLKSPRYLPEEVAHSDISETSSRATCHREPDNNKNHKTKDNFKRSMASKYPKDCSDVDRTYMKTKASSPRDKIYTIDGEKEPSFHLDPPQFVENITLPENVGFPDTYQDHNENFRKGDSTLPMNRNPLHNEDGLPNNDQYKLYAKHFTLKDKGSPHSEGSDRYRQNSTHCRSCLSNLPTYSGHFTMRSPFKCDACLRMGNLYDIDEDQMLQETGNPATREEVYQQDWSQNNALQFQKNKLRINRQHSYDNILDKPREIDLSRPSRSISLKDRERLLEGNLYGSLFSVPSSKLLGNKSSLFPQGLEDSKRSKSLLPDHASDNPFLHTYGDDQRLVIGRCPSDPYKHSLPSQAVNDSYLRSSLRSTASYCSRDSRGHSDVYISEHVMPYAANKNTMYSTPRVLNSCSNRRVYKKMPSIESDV

SMILES: O=C(O)c1cc2cc(Br)ccc2oc1=O [UBP608]
selectivity for GluN2A over GluN2D (GluN1/GluN2A NMDAR [1]): 23 fold

SMILES: CCCCOc1ccc2cc(C(=O)O)ccc2c1 [Compound 24, 6-Butoxy-2-naphthoic acid]
inhibition on at least one of the GluN1/GluN2 subtypes ([2]; 100 μM): ≥ 50%

percentage maximum inhibition of the agonist response, GluN2D (GluN1/GluN2D NMDAR): 70–80% | fold lower IC50 on GluN2A and GluN2D compared to 79a ([2]; GluN2A and GluN2D): 3 fold | fold higher IC50 on GluN2B compared to 79a (GluN1/GluN2B NMDAR): 4 fold | percentage maximum inhibition of the agonist response, GluN2A (GluN1/GluN2A NMDAR [3]; value in parenthesis, ± s.e.m., L-glutamate 10 μM and glycine 10 μM): 30%
SMILES: O=C(O)c1cc2cc(/C=C/c3ccccc3[N+](=O)[O-])ccc2cc1O [Compound 79h, (E)-3-Hydroxy-7-(2-nitrostyryl)-2-naphthoic acid]
maximal inhibition of GluN2B-D ([2]; range over GluN2B-D): 60–80%

SMILES: CCCCCc1ccc2cc(CC(=O)O)ccc2c1 [Compound 21, (6-n-Pent-1-ylnaphthalen-2-yl)acetic acid]
inhibition on at least one of the GluN1/GluN2 subtypes ([2]; 100 μM): ≥ 50%

SMILES: CC(C)CNC(=O)c1ccc2cc(C(=O)O)ccc2c1 [Compound 52, 6-(Isobutylcarbamoyl)-2-naphthoic acid]
inhibition on at least one of the GluN1/GluN2 subtypes ([2]; 100 μM): ≥ 50%

inhibition at 100 µM (GluN1/GluN2A NMDAR [3]; read-out: inhibition of the agonist response on GluN2A): 26 ± 2%
SMILES: O=C(O)c1ccc2cc(I)ccc2c1 [6-iodo-2-naphthoic acid]
inhibitory activity on GluN2B-D ([2]; 100 μM, range over GluN2B-D): 9–12%

SMILES: CC(C)COCc1ccc2cc(C(=O)O)ccc2c1 [Compound 57, 6-(Isobutoxymethyl)-2-naphthoic acid]
inhibition on at least one of the GluN1/GluN2 subtypes ([2]; 100 μM): ≥ 50%

fold higher inhibitory activity on GluN2C compared to 7 (GluN1/GluN2C NMDAR): 5 fold | fold higher inhibitory activity on GluN2D compared to 7 (GluN1/GluN2D NMDAR; from IC50 values, Table 6): 35 fold | percentage maximum inhibition of the agonist response, GluN2D (GluN1/GluN2D NMDAR): 70–80% | fold greater inhibitory activity on GluN2B compared to 7 (GluN1/GluN2B NMDAR): 10 fold
SMILES: O=C(O)c1cc2cc(/C=C/c3cccc([N+](=O)[O-])c3)ccc2cc1O [Compound 79i, (E)-3-Hydroxy-7-(3-nitrostyryl)-2-naphthoic acid]

SMILES: CCc1ccc2cc(C(=O)O)ccc2c1 [6-ethyl derivative]
percentage inhibition on GluN2A-D ([2]; 100 μM, range over GluN2A-D): 17–52%

SMILES: CCCc1ccc2cc(C(=O)O)ccc2c1 [6-n-propyl derivative]
percentage inhibition on GluN2A-D ([2]; 100 μM, range over GluN2A-D): 0–14%

SMILES: O=C(O)c1cc2cc(-c3ccccc3)ccc2cc1O [Compound 7, reference compound]
glutamate-site or glycine-site NMDAR agonist activity; activity in the absence of agonists (NMDAR): did not display glutamate-site or glycine-site NMDAR agonist activity | maximal inhibition of GluN2A and GluN2B [4]: 57–72%

fold greater inhibitory activity on GluN2B compared to 7 (GluN1/GluN2B NMDAR): ~ 10 fold
SMILES: O=C(O)c1cc2cc(/C=C/c3ccccc3)ccc2cc1O [Compound 79a, (E)-3-Hydroxy-7-styryl-2-naphthoic acid]
fold greater inhibitory activity on GluN2C and GluN2D compared to 7 ([2]; GluN2C and GluN2D, from IC50 values, Table 6): 3–5 fold | maximal inhibition across GluN2A-D ([2]; range over GluN2A-D): 83–94%

SMILES: CC(C)CCC(C)c1ccc2cc(C(=O)O)ccc2c1 (racemic) [Compound 46, (RS)-6-(5-Methylhexan-2-yl)-2-naphthoic acid]
NMDAR agonist activity or effect on the holding current (NMDAR): no NMDAR agonist activity or effect on the holding current

SMILES: CC(C)C(=O)OCc1ccc2cc(C(=O)O)ccc2c1 [Compound 54, 6-((Isobutyryloxy)methyl)-2-naphthoic acid]
inhibition on at least one of the GluN1/GluN2 subtypes ([2]; 100 μM): ≥ 50%

SMILES: O=C(O)c1ccc2cc(I)c3ccccc3c2c1 [Compound 1, reference compound]
glutamate-site or glycine-site NMDAR agonist activity; activity in the absence of agonists (NMDAR): did not display glutamate-site or glycine-site NMDAR agonist activity

EC50 ([2]; read-out: EC50 values across GluN2A-D, range over GluN2A-D): 28 to 37.2 µM
SMILES: CC(C)CCCc1ccc2cc(C(=O)O)ccc2c1 [Compound 14b, 6-(4-Methylpent-1-yl)-2-naphthoic acid]
NMDAR agonist activity or effect on the holding current (NMDAR): no NMDAR agonist activity or effect on the holding current | potentiation across GluN2A-D ([2]; 100 μM): > 170%
